A compilation of properties of binary mixtures (doi:10.1016/j.molliq.2016.04.040)

Assay: xn = mol fraction of the nth substance listed
Details: 100 kPa

CC(=O)[O-].CCC[NH3+] + O
speed of sound [m/s]
Details	293.15 K	298.15 K	303.15 K	308.15 K	313.15 K	318.15 K	323.15 K	328.15 K	333.15 K
x2 = 0	1504.2	1490.7	1476.6	1461.9	1447.5	1433.3	–	1405.6	1391.1
x2 = 0.05	1506.6	1493.5	1478.6	1464	1449.1	1434.5	1420.4	1406.6	1392.6
x2 = 0.0978	1509.6	1495.7	–	1466.8	1451.7	1436.1	–	1407.6	1393.3
x2 = 0.1978	–	–	1485.6	–	–	1439.8	1424.3	–	1395.1
x2 = 0.3095	–	1506.4	1491.6	1474.8	1459.3	–	1428	1413.1	1397.7
x2 = 0.3891	1527.5	1511.4	1495.3	1479	1462.8	1446.7	1430.3	1414.7	1399.2
x2 = 0.4931	–	1517	1500.3	–	–	–	1433.2	1417.5	–
x2 = 0.599	1539.9	1521.9	1505.3	1488.3	1471.5	–	1436.8	1420.2	1402.8
x2 = 0.7001	1545.8	1527.3	1510	1492	1474.8	1457.5	1439.8	1422.2	1405.1
x2 = 0.7998	1552.5	–	–	1497.2	1478.8	1461.4	–	1424.9	1407.8
x2 = 0.891	–	1538.6	1519.6	1501.1	1482.7	1463.9	–	–	1409

CCC[NH3+].O=C[O-] + O
speed of sound [m/s]
Details	293.15 K	298.15 K	303.15 K	308.15 K	313.15 K	318.15 K	323.15 K	328.15 K	333.15 K
x2 = 0	1552	1540.7	1530.2	–	1509.5	1499.2	1489.1	1479	1469
x2 = 0.0505	1557.1	1546.6	1536.1	1525.7	1515.4	–	1495.1	1485	1474.9
x2 = 0.1036	1565.1	1554.7	1544.2	1533.9	1523.7	1513.5	1503.4	1493.4	1483.2
x2 = 0.2456	1588.7	1578.5	1568.5	–	1548.1	1538	1528	–	–
x2 = 0.2838	–	1585.9	1575.7	1565.6	–	1545.4	–	1525.4	–
x2 = 0.429	1615.5	1605.7	–	–	1575.8	1566	1556	1546.1	1536
x2 = 0.5184	1632.4	–	1612.8	1603	1593	1583.1	1573.2	1563.3	–
x2 = 0.6064	–	–	1635.4	1625.7	1616	1606.2	1596.4	–	1576.6
x2 = 0.6994	1687.5	1678.4	1669.2	1659.9	1650.5	1641	1631.5	1621.8	1611.9
x2 = 0.8008	1727.2	1719.4	1711.3	–	1694.3	–	1676.4	1666.8	1657.3
x2 = 0.9026	1730	1725.8	–	1716.1	1710.7	1704.7	1698.3	1691.5	1684.3
